Experimental data from patent US20100221763A1, “Specific Acceptors for Transferases to Saccharides and Method for Obtaining and Using Same” (Health Research, Inc, priority 2005, published 2010).

How the values were obtained:
[1] = target: T1, Rat recombinant α2,3(O)ST (Rattus norvegicus, UniProt Q11205); experiment: Sialyltransferase assay with cloned α2,3(O)ST; type: biochemical; settings: for Km / Vmax: CMP-NeuAc 150 μM, Lineweaver-Burke plot
T1 construct: purchased Calbiochem
T1 sequence (Q11205 1-350): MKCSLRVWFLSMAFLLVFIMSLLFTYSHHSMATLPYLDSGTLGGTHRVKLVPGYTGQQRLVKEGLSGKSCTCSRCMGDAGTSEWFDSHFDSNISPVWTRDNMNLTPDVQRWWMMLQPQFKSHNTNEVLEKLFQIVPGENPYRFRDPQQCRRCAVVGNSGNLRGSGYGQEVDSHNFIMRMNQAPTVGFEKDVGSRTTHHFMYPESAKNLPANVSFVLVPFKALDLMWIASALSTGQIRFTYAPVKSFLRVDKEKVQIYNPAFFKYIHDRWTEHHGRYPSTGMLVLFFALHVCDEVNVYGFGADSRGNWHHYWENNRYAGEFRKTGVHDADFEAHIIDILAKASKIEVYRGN
Protocol: (§1) Rat recombinant α2,3(O)ST, α2,3(N)ST and α2,6(N)ST were purchased from Calbiochem and stored at either −20° C. or −70° C. as recommended by the supplier. […] 10 μl aliquots of the diluted enzymes were used in the assays run in duplicate.
(§2) The incubation mixtures run in duplicate contained 0.1M NaCacodylate buffer pH6.0, the acceptor (typically at 7.5 mM, or as indicated in some experiments), CMP-[9 ^3H] NeuAc (typically 0.2 μci; 20 μci/nmol or as indicated in some experiments) and the enzyme in a total volume of 20 μl. The control incubation mixtures contained everything except the acceptor. Incubation was carried out for 2 h at 37° C. The enzymatic transfer of [9-^3H] NeuAc to a typical acceptor was linear for 2 h and less than 30% CMP-[9-^3H] NeuAc was utilized. Chromatography, using either Dowex-1-Formate, Sep-Pak C18 or Biogel P2, was applied to separate radioactive product from un-reacted [9-^3H] NeuAc as described below.
(§3) The radioactive products from neutral allyl and methyl glycosides as well as non-glycosides were measured by fractionation on Dowex-1-Formate (Bio-Rad: AG-1X8; 200-400 mesh; format form) as follows: The incubation mixture was diluted with 1.0 ml water and passed through AG-1-formate column (1.0 ml bed volume in a Pasteur pipet which had been washed with 5 ml of 2M Formic acid followed by 10 ml water). The column was washed twice with 1.0 ml water after the entry of the sample and then eluted with 3.0 ml of 0.1M NaCl. The radioactivity present in water and 0.1M NaCl eluates were measured separately using 3a70 scintillation cocktail (Research Products International, Mount Prospect, Ill.) and a Beckman LS6500 scintillation counter. The CPM values were corrected by subtracting the blank CPM. Any radioactivity present in the water eluate (as noticed in the case of some methylglycosides) was added to the corresponding CPM value of 0.1M NaCl eluate. The radioactive products from sulfated and/or sialylated methylglycosides were also measured by the above procedure, only the elution of the AG-1-Formate column was continued further with 3.0 ml of 0.2M NaCl for achieving a complete elution of the radioactive product, a correction being made as before by subtracting the corresponding blank values.
(§4) The radioactive products from benzylglycosides and monosialylated benzylglycosides were measured by hydrophobic chromatography on Sep-Pak C18 cartridge (Waters, Milford, Mass.) and eluting the product with 3.0 ml methanol (30). The radioactivity was determined by liquid scintillation as above.
(§5) For such work, a Biogel P2 column (Fine Mesh; 1.0×116.0 cm) was used with 0.1M pyridine acetate pH5.4 as the eluent at room temperature. The effluent fractions were monitored for radioactivity and the first peak containing radioactivity was collected, lyophilized to dryness, dissolved in 200 μl of water and stored frozen at −20° C. for thin layer chromatography (TLC) and other experimentation.

LNCaP α2,3(O)ST = experiment: Sialyltransferase assay with LNCaP cell extract; type: biochemical, human
Protocol: The prostate carcinoma cell line, LNCaP, was grown in RPMI 1640 supplemented with 10% fetal bovine serum and antibiotics (penicillin, streptomycin and amphotericin B) under conditions recommended by American Type Culture Collection (Manassas, Va.). The cells were homogenized with 0.1M Tris-Maleate pH6.3 containing 2% Triton X-100 using a Dounce all glass hand-operated homogenizer. The homogenate was centrifuged at 16,000 g for 1 h at 4° C. Protein concentration in supernatant was measured using the BCA assay (Pierce Biotech, Inc., Rockford, Ill.), with BSA as the standard. The supernatant was adjusted to 5 mg protein/ml by adding the necessary amount of extraction buffer and then stored frozen at −20° C. until use. 10 μl aliquot of this extract was used in assays run in duplicate.
as §2, §3, §4, §5

[2] = target: T2, Rat recombinant α2,3(N)ST (Rattus norvegicus, UniProt Q02734); experiment: Sialyltransferase assay with cloned α2,3(N)ST; type: biochemical; settings: Table I; acceptor 7.5 mM; 100% = 29520 CPM (Galβ1,4GlcNAcβ-O—Al)
T2 construct: purchased Calbiochem
T2 sequence (Q02734 29-374 limits assumed): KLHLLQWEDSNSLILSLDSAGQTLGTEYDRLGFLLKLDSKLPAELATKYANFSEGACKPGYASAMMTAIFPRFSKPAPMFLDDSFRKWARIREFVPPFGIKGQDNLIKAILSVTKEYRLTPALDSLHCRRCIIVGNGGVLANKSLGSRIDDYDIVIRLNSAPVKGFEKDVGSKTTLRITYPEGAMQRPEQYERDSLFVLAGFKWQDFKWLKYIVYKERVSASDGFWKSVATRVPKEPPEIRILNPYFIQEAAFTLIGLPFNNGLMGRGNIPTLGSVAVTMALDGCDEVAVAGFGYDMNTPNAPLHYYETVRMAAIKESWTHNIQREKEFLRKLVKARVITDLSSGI
Protocol: as §1, §2, §3, §4, §5

[3] = Table II, acceptor 0.75 mM, relative to Galβ1,3GalNAcα-O-Bn
[4] = Table II, acceptor 7.5 mM, relative to Galβ1,3GalNAcα-O-Bn
[5] = Table IV, compound 7.5 mM, relative to Galβ1,3(GlcNAcβ1,6)GalNAcα-O—Al
[6] = Table I, acceptor 7.5 mM, 100% = 40560 CPM (3-O-MeGalβ1,4GlcNAcβ1,6(Galβ1,3)GalNAcα-O-Bn)
[7] = Table I, acceptor 7.5 mM, 100% = 30930 CPM (3-O-MeGalβ1,4GlcNAcβ1,6(Galβ1,3)GalNAcα-O-Bn)

SMILES	Sialyltransferase activity (%) Cloned α2,3(O)ST [1, 3]	Sialyltransferase activity (%) LNCaP α2,3(O)ST (LNCaP α2,3(O)ST; [3]) [%]	Km [1] [µM]	Vmax [1] [pmol/h]	further results
CO[C@H]1[C@@H](O)[C@@H](CO)O[C@@H](O[C@H]2[C@@H](O)[C@@H](CO)O[C@H](OCc3ccccc3)[C@@H]2NC(C)=O)[C@@H]1O [3-O-MeGalβ1,3GalNAcα-O-Bn]	70.4%	2.6	–	–	Sialyltransferase activity (%) Cloned α2,3(O)ST [1, 4]: 101.8%; Sialyltransferase activity (%) LNCaP α2,3(O)ST (LNCaP α2,3(O)ST; [4]): 15.5%
CC(=O)N[C@H]1[C@@H](OCc2ccccc2)O[C@H](CO)[C@H](O)[C@@H]1O[C@@H]1O[C@H](CO)[C@H](F)[C@H](O)[C@H]1O [4-F-Galβ1,3GalNAcα-O-Bn]	104.6^10%	44.8	250	1442	Sialyltransferase activity (%) Cloned α2,3(O)ST [1, 4]: 102.3^10%; Sialyltransferase activity (%) LNCaP α2,3(O)ST (LNCaP α2,3(O)ST; [4]): 105.1%
CC(=O)N[C@H]1[C@H](OC[C@H]2O[C@H](OCc3ccccc3)[C@H](NC(C)=O)[C@@H](O[C@@H]3O[C@H](CO)[C@H](O)[C@H](O[C@@]4(C(=O)O)C[C@H](O)[C@@H](NC(C)=O)[C@H]([C@H](O)[C@H](O)CO)O4)[C@H]3O)[C@H]2O)O[C@H](CO)[C@@H](O[C@@H]2O[C@H](CO)[C@H](O)[C@H](O)[C@H]2O)[C@@H]1O[C@@H]1O[C@@H](C)[C@@H](O)[C@@H](O)[C@@H]1O [Galβ1,4(Fucα1,3)GlcNAcβ1,6(NeuAcα2,3Galβ1,3)GalNAcα-O-Bn]	–	–	–	–	Sialyltransferase activity (%) Cloned α2,3(N)ST [2]: 27.1%
CO[C@H]1O[C@H](CO)[C@H](O)[C@H](O[C@@H]2O[C@H](CO)[C@H](O)[C@H](O[C@@H]3O[C@H](C)[C@H](O)[C@H](OS(=O)(=O)O)[C@H]3O)[C@H]2NC(C)=O)[C@H]1O [3-O-SulfoD-Fucβ1,3GalNAcβ1,3Galα-O-Me]	–	–	2000	624	–
CC(=O)N[C@H]1[C@H](OC[C@H]2O[C@H](OCc3ccccc3)[C@H](NC(C)=O)[C@@H](O[C@@H]3O[C@H](CO)[C@H](O)[C@H](O)[C@H]3O[C@@H]3O[C@@H](C)[C@@H](O)[C@@H](O)[C@@H]3O)[C@H]2O)O[C@H](CO)[C@@H](O)[C@@H]1O [Fucα1,2Galβ1,3(GlcNAcβ1,6)GalNAcα-O-Bn]	–	–	1820	197	Sialyltransferase activity (%) Cloned α2,3(O)ST [1, 5]: 45.4%
COC[C@H]1O[C@H](OCc2ccccc2)[C@H](NC(C)=O)[C@@H](O[C@@H]2O[C@H](CO)[C@H](O)[C@H](OC)[C@H]2O)[C@H]1O [3-O-MeGalβ1,3(6-O-Me)GalNAcα-O-Bn]	55.9%	1.1	–	–	–
CO[C@H]1O[C@H](CO[C@@H]2O[C@H](CO)[C@@H](O[C@@H]3O[C@H](CO)[C@H](O)[C@H](O)[C@H]3NC(C)=O)[C@H](O[C@@H]3O[C@@H](C)[C@@H](O)[C@@H](O)[C@@H]3O)[C@H]2NC(C)=O)[C@H](O)[C@H](O[C@@H]2O[C@H](CO)[C@H](O)[C@H](O)[C@H]2O)[C@H]1NC(C)=O [GalNAcβ1,4(Fucα1,3)GlcNAcβ1,6(Galβ1,3)GalNAcα-O-Me]	–	–	–	–	Sialyltransferase activity (%) Cloned α2,3(O)ST [1, 6]: 134.9%; Sialyltransferase activity (%) LNCaP α2,3(O)ST (LNCaP α2,3(O)ST; [7]): 21.1%
COC1OC(CO)C(O)C(OC2OC(CO)C(O)C(OC3OC(CO)C(O)C(OS(=O)(=O)O)C3O)C2NC(C)=O)C1O (centres unmarked) [3-O-SulfoGalβ1,3GalNAcβ1,3Galα-O-Me]	–	–	1250	416	–
CC(=O)NC1C(OC2C(O)C(CO)OC(OC3C(CO)OC(OCc4ccccc4)C(NC(C)=O)C3O)C2O)OC(CO)C(OC2OC(CO)C(O)C(O)C2O)C1O (centres unmarked) [Galβ1,4GlcNAcβ1,3Galβ1,4GlcNAcβ-O-Bn]	–	–	–	–	Sialyltransferase activity (%) Cloned α2,3(O)ST [1, 6]: 8.7%
COC[C@H]1O[C@H](OCc2ccccc2)[C@H](NC(C)=O)[C@@H](O[C@@H]2O[C@H](CO)[C@H](O)[C@H](O)[C@H]2O)[C@H]1O [Galβ1,3(6-O-Me)GalNAcα-O-Bn]	107.6^11%	119.2	–	–	Sialyltransferase activity (%) Cloned α2,3(O)ST [1, 4]: 107.3^11%; Sialyltransferase activity (%) LNCaP α2,3(O)ST (LNCaP α2,3(O)ST; [4]): 189.4%
COC1OC(COC2OC(COS(=O)(=O)O)C(OC3OC(CO)C(O)C(OC4(C(=O)O)CC(O)C(NC(C)=O)C(C(O)C(O)CO)O4)C3O)C(OC3OC(C)C(O)C(O)C3O)C2NC(C)=O)C(O)C(OC2OC(CO)C(O)C(O)C2O)C1NC(C)=O (centres unmarked) [NeuAcα2,3Galβ1,4(6-O-Sulfo)(Fucα1,3)GlcNAcβ1,6(Galβ1,3)GalNAcα-O-Me]	–	–	–	–	Sialyltransferase activity (%) Cloned α2,3(O)ST [1, 6]: 7.4%
CC(=O)NC1C(OCC2OC(OCc3ccccc3)C(NC(C)=O)C(OC3OC(CO)C(O)C(OS(=O)(=O)O)C3O)C2O)OC(CO)C(O)C1O (centres unmarked) [3-O-SulfoGalβ1,3(GlcNAcβ1,6)GalNAcα-O-Bn, 3-O-SulfoGalβ1,3(GlcNAcβ1,6) GalNAcα-O-Bn]	–	–	–	–	Sialyltransferase activity (%) Cloned α2,3(O)ST [1, 5]: 54.7%
CO[C@H]1[C@@H](O)[C@@H](CO)O[C@@H](O[C@H]2[C@@H](O)[C@@H](CO[C@@H]3O[C@H](CO)[C@@H](O)[C@H](O)[C@H]3NC(C)=O)O[C@H](OCc3ccccc3)[C@@H]2NC(C)=O)[C@@H]1O [3-O-MeGalβ1,3(GlcNAcβ1,6)GalNAcα-O-Bn, 3-O-MeGalβ1,3(GlcNAcβ1,6) GalNAcα-O-Bn]	–	–	–	–	Sialyltransferase activity (%) Cloned α2,3(O)ST [1, 5]: 24.7%
COC1OC(COC2OC(CO)C(OC3OC(CO)C(O)C(OC4(C(=O)O)CC(O)C(NC(C)=O)C(C(O)C(O)CO)O4)C3O)C(O)C2NC(C)=O)C(O)C(OC2OC(CO)C(O)C(O)C2O)C1NC(C)=O (centres unmarked) [NeuAcα2,3Galβ1,4GlcNAcβ1,6(Galβ1,3)GalNAcα-O-Me]	–	–	–	–	Sialyltransferase activity (%) Cloned α2,3(O)ST [1, 6]: 35.2%; Sialyltransferase activity (%) LNCaP α2,3(O)ST (LNCaP α2,3(O)ST; [7]): 5.1%
CO[C@@H]1[C@H](O)[C@@H](O)[C@H](O[C@H]2[C@@H](O)[C@@H](CO)O[C@H](OCc3ccccc3)[C@@H]2NC(C)=O)O[C@@H]1CO [4-O-MeGalβ1,3GalNAcα-O-Bn]	104.6^9%	141.5	130	1250	Sialyltransferase activity (%) Cloned α2,3(O)ST [1, 4]: 105.0^9%; Sialyltransferase activity (%) LNCaP α2,3(O)ST (LNCaP α2,3(O)ST; [4]): 188.7%
